Experimental findings from ChEMBL document CHEMBL5390218, “Benzimidazole derivatives as tubulin polymerization inhibitors: Design, synthesis and in vitro cytotoxicity studies” (Bioorg Med Chem Lett, 2023) are described below.

The nature of data set [1]: Selectivity index, ratio of IC50 for NRK-52E cells to ratio of IC50 for mouse B16-F10 cells. Type of data set: toxicity. As to conditions: NRK-52E cells versus B16-F10 cells, read-out: Selectivity Index.
A further data set has as its system HCT-116. The data set is described as follows: Anticancer activity against human HCT-116 cells assessed as inhibition in cell growth measured after 72 hrs by MTT assay. Type of data set: functional, cell-based. The settings on record: HCT-116, 72 h. (In general: Tetrazolium dyes change colour on reduction, which living cells bring about.)
A further data set deals with B16-F10. The data set is described as follows: Anticancer activity against mouse B16-F10 cells assessed as inhibition in cell growth measured after 72 hrs by MTT assay. Type of data set: functional, cell-based. As to conditions: B16-F10, 72 h.
The subject of another data set is A549. The data set is described as follows: Anticancer activity against human A549 cells assessed as inhibition in cell growth measured after 72 hrs by MTT assay. The settings on record: A549, 72 h. In kind it is functional, cell-based.
Data set [2] relates to SK-MEL-28. The data set is described as follows: Anticancer activity against human SK-MEL-28 cells assessed as inhibition in cell growth measured after 72 hrs by MTT assay. As to conditions: SK-MEL-28, 72 h. In kind it is functional, cell-based.
For a further data set, the system named is MCF7. The data set is described as follows: Anticancer activity against human MCF7 cells assessed as inhibition in cell growth measured after 72 hrs by MTT assay. The settings on record: MCF7, 72 h. Type of data set: functional, cell-based.
Data set [3] can be described thus: Cytotoxicity against NRK-52E cells assessed as inhibition in cell growth measured after 72 hrs by MTT assay. In kind it is toxicity, cell-based. As to conditions: rat.
Data set [4] can be described thus: Selectivity index, ratio of IC50 for NRK-52E cells to ratio of IC50 for human HCT-116 cells. Type of data set: toxicity. The settings on record: rat (NRK-52E), NRK-52E cells versus HCT-116 cells, read-out: Selectivity Index.
A short description of data set [5]: Selectivity index, ratio of IC50 for NRK-52E cells to ratio of IC50 for human A549 cells. In kind it is toxicity. The settings on record: rat (NRK-52E), NRK-52E cells versus A549 cells, read-out: Selectivity Index.
Data set [6] can be described thus: Selectivity index, ratio of IC50 for NRK-52E cells to ratio of IC50 for human SK-MEL-28 cells.
The nature of data set [7]: Selectivity index, ratio of IC50 for NRK-52E cells to ratio of IC50 for human MCF7 cells. As to conditions: rat (NRK-52E), NRK-52E cells versus MCF7 cells, read-out: Selectivity Index. Type of data set: toxicity.
For data set [8], the system named is SK-MEL-28. The data set is described as follows: Induction of ROS generation in human SK-MEL-28 cells by DCFDA staining based analysis. The settings on record: dose 1-5 µM. In kind it is functional, cell-based.
For data set [9], the system named is SK-MEL-28. The data set is described as follows: Inhibition of cell migration in human SK-MEL-28 cells at 1 to 5 uM incubated for 0 to 48 hrs by wound healing assay. As to conditions: dose 1-5 µM, time 0-48 hrs. In kind it is functional, cell-based.
Data set [10] concerns SK-MEL-28. The data set is described as follows: Inhibition of cell migration in human SK-MEL-28 cells at 1 to 5 uM incubated for 0 to 48 hrs by phase-contrast microscopy. In kind it is functional, cell-based. The settings on record: dose 1-5 µM, time 0-48 hrs.
The subject of data set [11] is SK-MEL-28. The data set is described as follows: Inhibition of colony formation in human SK-MEL-28 cells incubated for 48 hrs by crystal violet staining based colony formation assay. Type of data set: functional, cell-based. The settings on record: dose 1-5 µM.
Data set [12] relates to SK-MEL-28. The data set is described as follows: Induction of morphological changes in human SK-MEL-28 cells assessed as cell shrinkage by ethidium bromide/acridine orange staining based analysis. Type of data set: functional. As to conditions: dose 1-5 µM.
Data set [13] relates to SK-MEL-28. The data set is described as follows: Induction of morphological changes in human SK-MEL-28 cells assessed as membrane blebbing by ethidium bromide/acridine orange staining based analysis. In kind it is functional, cell-based. As to conditions: dose 1-5 µM.
Data set [14] relates to SK-MEL-28. The data set is described as follows: Induction of morphological changes in human SK-MEL-28 cells assessed as chromatin condensation by ethidium bromide/acridine orange staining based analysis. In kind it is functional, cell-based. As to conditions: dose 1-5 µM.
Data set [15] has as its system SK-MEL-28. The data set is described as follows: Induction of morphological changes in human SK-MEL-28 cells assessed as production of apoptotic bodies by ethidium bromide/acridine orange staining based analysis. In kind it is functional, cell-based. As to conditions: dose 1-5 µM.
Data set [16] concerns SK-MEL-28. The data set is described as follows: Induction of morphological changes in human SK-MEL-28 cells assessed as nuclear shrinkage at 1 to 5 uM measured after 48 hrs DAPI staining based analysis. In kind it is functional, cell-based. The settings on record: dose 1-5 µM.
Data set [17] deals with SK-MEL-28. The data set is described as follows: Induction of morphological changes in human SK-MEL-28 cells assessed as bright pyknotic nuclei at 1 to 5 uM measured after 48 hrs DAPI staining based analysis. Type of data set: functional, cell-based. The settings on record: dose 1-5 µM.
The test system of data set [18] is SK-MEL-28. The data set is described as follows: Induction of morphological changes in human SK-MEL-28 cells assessed as bright fragmented nuclei at 1 to 5 uM measured after 48 hrs DAPI staining based analysis. Type of data set: functional, cell-based. As to conditions: dose 1-5 µM.
Data set [19] concerns SK-MEL-28. The data set is described as follows: Induction of morphological changes in human SK-MEL-28 cells assessed as chromatin condensation at 1 to 5 uM measured after 48 hrs DAPI staining based analysis. In kind it is functional, cell-based. As to conditions: dose 1-5 µM.
In data set [20] the test system is SK-MEL-28. The data set is described as follows: Induction of morphological changes in human SK-MEL-28 cells assessed as appearance of nuclei at 1 to 5 uM measured after 48 hrs DAPI staining based analysis. Type of data set: functional, cell-based. The settings on record: dose 1-5 µM.

The source made the active and inactive calls. The calls are words filed in the database; no cut-off is given here.

For the compound `COc1cc(-c2nc3cc(C)ccc3[nH]2)ccc1OCC(=O)N1CCc2ccccc2C1`, the selectivity ratio in data set [1] came out at 10.9; in data set [4] it was 8.6; in data set [5] it was 9.4; in data set [7] it was 8.8. Moreover, the IC50 amounted to 6.04 µM in the data set with HCT-116; 4.76 µM in the data set with B16-F10; 5.5 µM in the data set on A549; 2.55 µM with SK-MEL-28 [2]; 5.9 µM in the data set on MCF7. Moreover, in data set [3], the IC50 at 72 h was 51.9 µM. The “Selectivity Index” value in [6] worked out at 20.3. In addition, the Activity entry in the data set with SK-MEL-28 [8], with SK-MEL-28 [12], with SK-MEL-28 [13], in the data set with SK-MEL-28 [14] and with SK-MEL-28 [15] was “Dose-Dependent Effect” in each case. Also, the inhibition entry with SK-MEL-28 [9] and in the data set on SK-MEL-28 [10] was “Active” in each case. Moreover, in the data set with SK-MEL-28 [11], the inhibition result was “Dose-Dependent Effect”. Further, the result with SK-MEL-28 [16], with SK-MEL-28 [17], with SK-MEL-28 [18], in the data set on SK-MEL-28 [19] and with SK-MEL-28 [20] was Active.

A word on the IC50: it is the concentration at which inhibition is half-maximal.
